Results taken from ChEMBL document CHEMBL1201862, “PubChem BioAssay data set” (2004).
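Five concentrations, 48 hours, 96-well plates. Here, GI50 denotes the concentration required for 50% inhibition of growth.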 Activity calls are given as the source filed them. Rule as the data show it: active = GI50 up to about 1.1 µM and inactive = higher.

Assays:
Test in all cases: DTP human tumour cell line panel, 48 h
OVCAR-3 = system: OVCAR-3
SW-620 = system: SW-620
SR = system: SR
EKVX = system: EKVX
MDA-MB-231 = system: MDA-MB-231
A498 = system: A498
SN12C = system: SN12C
CCRF-CEM = system: CCRF-CEM
SF-268 = system: SF-268
HCC 2998 = system: HCC 2998
DU-145 = system: DU-145
UACC-257 = system: UACC-257
MCF7 = system: MCF7
CAKI-1 = system: CAKI-1
K562 = system: K562
ACHN = system: ACHN
HOP-92 = system: HOP-92
NCI-H23 = system: NCI-H23
OVCAR-8 = system: OVCAR-8
TK-10 = system: TK-10

| SMILES | GI50 (OVCAR-3) | GI50 (SW-620) | GI50 (SR) | GI50 (EKVX) | GI50 (MDA-MB-231) | GI50 (A498) | GI50 (SN12C) | GI50 (CCRF-CEM) | GI50 (SF-268) | GI50 (HCC 2998) | GI50 (DU-145) | GI50 (UACC-257) | GI50 (MCF7) | GI50 (CAKI-1) | GI50 (K562) | GI50 (ACHN) | GI50 (HOP-92) | GI50 (NCI-H23) | GI50 (OVCAR-8) | GI50 (TK-10) |
| --- | --- | --- | --- | --- | --- | --- | --- | --- | --- | --- | --- | --- | --- | --- | --- | --- | --- | --- | --- | --- |
| CCN1C(NCCO)=NS(=O)(=O)c2ccccc21 | > 100 µM (inactive) | > 100 µM (inactive) | > 100 µM (inactive) | > 100 µM (inactive) | > 100 µM (inactive) | > 100 µM (inactive) | > 100 µM (inactive) | > 100 µM (inactive) | > 100 µM (inactive) | > 100 µM (inactive) | > 100 µM (inactive) | > 100 µM (inactive) | > 100 µM (inactive) | > 100 µM (inactive) | > 100 µM (inactive) | > 100 µM (inactive) | > 100 µM (inactive) | > 100 µM (inactive) | > 100 µM (inactive) | > 100 µM (inactive) |
| C=C1c2nc3ccccc3n2C=C(c2ccc(OC)cc2)N1c1ccc(OCCN2CCCCC2)cc1 | 19.9 µM (inactive) | 6.27 µM (inactive) | 4.44 µM (inactive) | 40.9 µM (inactive) | 19.8 µM (inactive) | 35.7 µM (inactive) | 27.1 µM (inactive) | 2.79 µM (inactive) | > 30.4 µM (inactive) | 16 µM (inactive) | 13.1 µM (inactive) | 1.49 µM (inactive) | 9.16 µM (inactive) | 13.4 µM (inactive) | 4.83 µM (inactive) | 8.24 µM (inactive) | 28.1 µM (inactive) | 6.32 µM (inactive) | 7.76 µM (inactive) | 14.8 µM (inactive) |
| Clc1ccccc1/C=C/c1ccnc2ccccc12 | 14.5 µM (inactive) | 18.4 µM (inactive) | 17 µM (inactive) | 5.48 µM (inactive) | 22.9 µM (inactive) | 18.8 µM (inactive) | 16.4 µM (inactive) | 20.5 µM (inactive) | 18.9 µM (inactive) | 18.2 µM (inactive) | 15.7 µM (inactive) | 15.1 µM (inactive) | 11.6 µM (inactive) | 16.9 µM (inactive) | 15.9 µM (inactive) | 16.5 µM (inactive) | 10.2 µM (inactive) | 14.1 µM (inactive) | 18.3 µM (inactive) | 18 µM (inactive) |
| CC(C)(C)OC(=O)Cn1ncn(NC(=O)Cc2ccccc2)c1=O | > 10 µM (inactive) | > 10 µM (inactive) | > 10 µM (inactive) | > 10 µM (inactive) | > 10 µM (inactive) | > 10 µM (inactive) | > 10 µM (inactive) | > 10 µM (inactive) | > 10 µM (inactive) | > 10 µM (inactive) | > 10 µM (inactive) | > 10 µM (inactive) | > 10 µM (inactive) | > 10 µM (inactive) | > 10 µM (inactive) | > 10 µM (inactive) | > 10 µM (inactive) | > 10 µM (inactive) | > 10 µM (inactive) | > 10 µM (inactive) |
| CC1=NN(c2nc(N)nc(CCl)n2)CC1 | 13.4 µM (inactive) | 23.3 µM (inactive) | 20.8 µM (inactive) | 16.1 µM (inactive) | 40 µM (inactive) | 42.3 µM (inactive) | 32.4 µM (inactive) | 14.9 µM (inactive) | 32.7 µM (inactive) | 31.2 µM (inactive) | 56.4 µM (inactive) | 69.5 µM (inactive) | 38.1 µM (inactive) | 9.12 µM (inactive) | 18.2 µM (inactive) | 17.3 µM (inactive) | 19.3 µM (inactive) | 19.3 µM (inactive) | 20.8 µM (inactive) | 55.5 µM (inactive) |
| C/C(=C\COc1ccc2ccc(=O)oc2c1)CCC(=O)C(C)(C)O | 17.9 µM (inactive) | 19.5 µM (inactive) | 15.3 µM (inactive) | 34 µM (inactive) | 44 µM (inactive) | 24 µM (inactive) | 24.2 µM (inactive) | 16.4 µM (inactive) | 41.8 µM (inactive) | 19.9 µM (inactive) | 32.1 µM (inactive) | 28 µM (inactive) | 19.1 µM (inactive) | 29.2 µM (inactive) | 16.2 µM (inactive) | 31.3 µM (inactive) | 26.4 µM (inactive) | 33 µM (inactive) | 23.3 µM (inactive) | 39.3 µM (inactive) |
| CN(C)CCn1c(=O)c2ccc3c4c(nn3CCN(C)C)c3cc(N)ccc3n(c1=O)c24 | < 0.0151 µM (active) | < 0.0148 µM (active) | < 0.0103 µM (active) | 0.0507 µM (active) | < 0.0313 µM (active) | 0.061 µM (active) | < 0.0199 µM (active) | < 0.0126 µM (active) | < 0.01 µM (active) | < 0.01 µM (active) | < 0.0167 µM (active) | 0.118 µM (active) | < 0.0207 µM (active) | 0.0741 µM (active) | < 0.0133 µM (active) | < 0.0161 µM (active) | 0.191 µM (active) | < 0.01 µM (active) | 0.0238 µM (active) | 0.0513 µM (active) |
| CC1(O)CCC(C(C)(C)O)CC1 (stereo not given) [TERPIN] | > 100 µM (inactive) | > 100 µM (inactive) | > 100 µM (inactive) | 0.505 µM (active) | > 100 µM (inactive) | > 100 µM (inactive) | > 100 µM (inactive) | > 100 µM (inactive) | > 100 µM (inactive) | > 100 µM (inactive) | > 100 µM (inactive) | > 100 µM (inactive) | > 100 µM (inactive) | > 100 µM (inactive) | > 100 µM (inactive) | > 100 µM (inactive) | > 100 µM (inactive) | > 100 µM (inactive) | > 100 µM (inactive) | > 100 µM (inactive) |
